Broadly, the IC50 is the concentration needed to halve the response being measured.

RAC-alpha serine/threonine-protein kinase, sequence (P31749 whole entry): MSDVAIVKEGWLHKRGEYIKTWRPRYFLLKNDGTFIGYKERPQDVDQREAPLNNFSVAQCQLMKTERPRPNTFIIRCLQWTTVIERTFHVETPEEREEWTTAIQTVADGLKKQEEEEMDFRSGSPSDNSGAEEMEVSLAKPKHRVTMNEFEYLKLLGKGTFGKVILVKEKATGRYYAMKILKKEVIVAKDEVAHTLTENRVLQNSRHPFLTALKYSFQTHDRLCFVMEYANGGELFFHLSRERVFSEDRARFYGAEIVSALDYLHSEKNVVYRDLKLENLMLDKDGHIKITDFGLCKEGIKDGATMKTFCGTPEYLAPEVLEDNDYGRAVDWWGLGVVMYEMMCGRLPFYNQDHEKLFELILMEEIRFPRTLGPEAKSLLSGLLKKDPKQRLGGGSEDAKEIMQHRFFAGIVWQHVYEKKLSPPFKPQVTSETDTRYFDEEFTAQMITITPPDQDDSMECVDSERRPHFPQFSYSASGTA

The target in the experiment is RAC-alpha serine/threonine-protein kinase (Homo sapiens, UniProt P31749). The experiment in a line: Homogeneous Time-Resolved Fluorescence Resonance Energy Transfer Lance Assay. The note with it: pH 7.4; 22 °C. How it is done:
AKT1 was assayed using constitutively active Myr-AKT1 in low-binding 96-well plates. The kinase reactions were initiated by the addition of assay mix containing kinase assay buffer, ATP, and a biotinylated substrate peptide. After incubation, Phosphorylated biotin-GSK3alpha was detected by the time-resolved fluorescence resonance energy transfer Lance format with all reagents obtained from Perkin-Elmer. Subsequently, the plates were read in a Victor plate reader (Wallac/Perkin-Elmer).
Turning to `C[C@H]1O[C@@H]2CC(=O)O[C@@H]2C2=C1C(=O)c1c(O)cccc1C2=O`, 313 nM corresponded to half-maximal inhibition (IC50).
As for `O=C1C[C@@H]2O[C@H](c3ccsc3)C3=C(C(=O)c4ccccc4C3=O)[C@@H]2O1` [Pyranonaphthoquinone (PNQ) lactone, 11e], the figure is 99 nM; as for `O=C1C[C@H]2O[C@@H](c3ccsc3)C3=C(C(=O)c4ccccc4C3=O)[C@H]2O1` [Pyranonaphthoquinone (PNQ) lactone, 11f], 122 nM.
As for `C[C@H]1O[C@@H]2CC(=O)O[C@@H]2C2=C1C(=O)c1c(ccc(C3C[C@@H](N(C)C)[C@H](O)[C@@H](C)O3)c1O)C2=O` (some centres undefined) [Lactoquinomycin A], the figure is 149 nM.

These data come from BindingDB's records for doi:10.1021/jm900075g (Wyeth Research, 2009).
